Series [1] can be described thus: Drug level using Birinapant assessed as compound formation by HPLC analysis. The class given is physicochemical.
A short description of series [2]: Drug degradation of the compound at 40 degC/75% RH measured after 1 year by HPLC analysis. The class given is physicochemical. Conditions: read-out: Drug degradation.

`CC[C@H](NC(=O)[C@H](C)NC)C(=O)N1C[C@@H](O)C[C@H]1Cc1c([C@@]2(C[C@@H]3C[C@H](O)CN3C(=O)[C@H](CC)NC(=O)[C@H](C)NC)Nc3cc(F)ccc3C2=O)[nH]c2cc(F)ccc12`: the Drug metabolism result in series [1] is given as “metabolite_detected”.

Consider `CC[C@H](NC(=O)[C@H](C)NC)C(=O)N1C[C@@H](O)C[C@H]1Cc1c([C@]2(C[C@@H]3C[C@H](O)CN3C(=O)[C@H](CC)NC(=O)[C@H](C)NC)Nc3cc(F)ccc3C2=O)[nH]c2cc(F)ccc12`, for which the Drug metabolism entry in series [1] is “metabolite_detected”.

Turning to `CC[C@H](NC(=O)[C@H](C)NC)C(=O)N1C[C@@H](O)C[C@H]1C[C@@]1(O)C(c2[nH]c3cc(F)ccc3c2C[C@H]2C[C@@H](O)CN2C(=O)[C@@H](CC)NC(=O)[C@@H](C)NC)=Nc2cc(F)ccc21`, the Drug metabolism entry in series [1] is recorded as “metabolite_detected”.

On to `CC[C@H](NC(=O)[C@H](C)NC)C(=O)N1C[C@@H](O)C[C@H]1C[C@]1(O)C(c2[nH]c3cc(F)ccc3c2C[C@H]2C[C@@H](O)CN2C(=O)[C@@H](CC)NC(=O)[C@@H](C)NC)=Nc2cc(F)ccc21`, for which the Drug metabolism entry in series [1] is “metabolite_detected”.

Regarding `CC[C@H](NC(=O)[C@H](C)NC)C(=O)N1C[C@@H](O)C[C@H]1Cc1c(-c2[nH]c3cc(F)ccc3c2C[C@@H]2C[C@H](O)CN2C(=O)[C@H](CC)NC(=O)[C@H](C)NC)[nH]c2cc(F)ccc12` [BIRINAPANT], the degraded at 8766 h in series [2] is over 0.1%.
